Experimental data taken from patent publication US6855807B1 (priority 1999, dated 2005).
Where two headings read alike, the source gives them in different places.

Tests used:
kappa opioid receptor = target: T1, kappa opioid receptor (Rattus norvegicus, UniProt P34975); assay: biochemical; type: binding
T1 construct: expressed in transfected cells; host or cells: HEK293

kappa-delta heterodimer = target: T2, kappa-delta heterodimer (UniProt P32300+P34975); assay: biochemical; type: binding, rat kappa, mouse delta
T2 construct: myc; FLAG; expressed in transfected cells; host or cells: HEK293
T2 sequence (P34975 whole entry): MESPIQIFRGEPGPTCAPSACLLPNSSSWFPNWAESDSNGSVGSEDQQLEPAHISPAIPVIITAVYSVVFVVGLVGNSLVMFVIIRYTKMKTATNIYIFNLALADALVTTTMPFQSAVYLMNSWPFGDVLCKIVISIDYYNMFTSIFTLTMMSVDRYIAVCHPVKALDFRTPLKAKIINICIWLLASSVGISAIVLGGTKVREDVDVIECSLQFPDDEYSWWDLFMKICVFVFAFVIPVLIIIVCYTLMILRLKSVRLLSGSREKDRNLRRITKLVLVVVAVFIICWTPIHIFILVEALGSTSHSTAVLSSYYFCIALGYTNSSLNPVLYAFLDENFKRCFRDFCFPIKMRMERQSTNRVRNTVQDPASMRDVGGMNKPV
T2 sequence (P32300 whole entry): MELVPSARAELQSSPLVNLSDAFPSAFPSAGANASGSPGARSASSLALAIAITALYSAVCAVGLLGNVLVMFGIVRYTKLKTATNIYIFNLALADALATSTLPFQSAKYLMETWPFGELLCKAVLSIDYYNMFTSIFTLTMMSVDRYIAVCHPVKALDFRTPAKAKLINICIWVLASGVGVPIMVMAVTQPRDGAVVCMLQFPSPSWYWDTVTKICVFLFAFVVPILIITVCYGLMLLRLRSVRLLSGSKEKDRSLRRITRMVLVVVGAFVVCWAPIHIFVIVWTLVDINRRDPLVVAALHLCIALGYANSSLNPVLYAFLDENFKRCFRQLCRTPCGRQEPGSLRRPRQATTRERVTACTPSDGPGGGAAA

T1 sequence (P34975 whole entry): as the sequence (P34975 whole entry) above

SMILES | Ki (kappa opioid receptor; read-out: Kappa (Ki)) [nM] | Ki (kappa-delta heterodimer; read-out: Kappa-Delta (Ki)) [nM] | Ki (kappa opioid receptor) [nM] | Ki (kappa-delta heterodimer; Kappa-Delta (Ki)) [nM] | affinity of kappa receptors (in words) (kappa opioid receptor)
O=C1C(=Cc2ccccc2)C[C@@]2(O)[C@H]3Cc4ccc(O)c5c4[C@@]2(CCN3CC2CC2)[C@H]1O5 [BNTX, 7-Benzylidenenaltrexone] | 172 ± 19 | 98 ± 19 | – | – | –
CCC12CCN(CC3(O)CC3)C(Cc3ccc(O)cc31)C2(C)C (stereo not shown) [Bremazocine] | – | – | 0.4 ± 0.11 | 1.2 ± 0.1 | –
CC[C@]12CCN(CC3CC3)[C@H](C(=O)c3ccc(O)cc31)[C@@H]2C [EKC, ethylketocyclazocine] | – | – | 5.7 ± 0.79 | 2.6 ± 0.2 | –
Oc1ccc2c3c1O[C@H]1c4[nH]c5ccccc5c4C[C@@]4(O)[C@@H](C2)N(CC2CC2)CC[C@]314 [Naltrinole] | – | – | 44.3 ± 1.1 | 44 ± 1.1 | –
Oc1ccc2c3c1O[C@H]1c4[nH]c5c(c4C[C@@]4(O)[C@@H](C2)N(CC2CC2)CC[C@]314)C[C@@]1(O)[C@H]2Cc3ccc(O)c4c3[C@@]1(CCN2CC1CC1)[C@H]5O4 [nor-BNI, nor-binaltorphimine] | – | – | 4.9 ± 0.3 | – | high affinities
